Data reported in US7517857B2, “Immune-modulating peptide” (POSCO, priority 2002, dated 2009).
Where a SMILES comes first, the peptide text is derived from it. Where no end group is shown, it is not given here. [ ]: non-standard residue; d: D form.

Assays:
Type in all cases: cell-based
FPR [1] = molecular target: T1, FPR (Homo sapiens, UniProt P21462); test: Chemotaxis of FPR-expressing RBL-2H3 cells (modified Boyden chamber); conditions: FPR-expressing RBL-2H3 cells; various concentrations
T1 construct: expressed in transfected cells; host or cells: RBL-2H3 (rat basophilic leukemia) cells, G418-selected
T1 sequence (P21462 1-350): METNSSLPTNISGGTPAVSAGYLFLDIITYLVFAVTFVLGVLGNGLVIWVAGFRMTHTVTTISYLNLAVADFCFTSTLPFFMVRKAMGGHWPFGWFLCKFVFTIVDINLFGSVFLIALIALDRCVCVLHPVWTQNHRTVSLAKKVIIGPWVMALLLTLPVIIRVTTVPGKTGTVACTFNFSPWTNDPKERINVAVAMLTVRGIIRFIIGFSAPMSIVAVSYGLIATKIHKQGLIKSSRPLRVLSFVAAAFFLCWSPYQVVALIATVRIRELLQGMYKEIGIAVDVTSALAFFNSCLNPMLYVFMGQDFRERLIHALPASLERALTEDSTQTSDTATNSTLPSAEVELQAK
Method: (§1) Chemotaxis assays were performed using multiwell chambers (modified Boyden chamber assay) (Neuroprobe Inc., Gaithersburg, Md.) (18). Briefly, polycarbonate filters (8 μm pore size) were precoated with 50 μg/ml of rat type I collagen (Collaborative Biomedicals) in a HEPES-buffered RPMI 1640 medium. A dry coated filter was placed on a 96-well chamber containing different concentrations of peptides. RBL-2H3 cells expressing FPR or FPRL1 were suspended in RPMI at a concentration of 1×10^6 cells/ml of serum-free RPMI, and 25 μl of the suspension were placed onto the upper well of the 96-well chemotaxis chamber. After incubation for 4 hours at 37° C., non-migrated cells were removed by scraping them out, and cells that migrated across the filter were dehydrated, fixed, and stained with hematoxylin (Sigma, St. Louis, Mo.). The stained cells in five randomly chosen high power fields (HPF) (400×) in that well were then counted. […] The numbers of migrated cells were determined by counting them in a high power field (400×). The Data are presented as means ±SE of three independent experiments each performed in duplicate. The effect of the peptides of the present invention on cellular chemotaxis in FPR- or FPRL1-expressing RBL-2H3 cells was measured. Various concentrations of each peptide were used for the chemotaxis assay with FPR- or FPRL1-expressing RBL-2H3 cells. The numbers of migrated cells were determined by counting them in a high power field (400×). The Data are presented as means ±SE of two independent experiments each performed in duplicates.

FPR [2] = molecular target: T1, FPR; test: [Ca2+]i increase in FPR-expressing RBL-2H3 cells (fura-2); conditions: for EC50 (nM), intracellular calcium increase: fura-2 loaded
Method: FPR-expressing RBL-2H3 cells were stimulated with 10 μM of each peptide, and [Ca^2+]i was determined. The level of [Ca^2+]i was determined fluorometrically by Grynkiewicz's method using fura-2/AM (15). Briefly, prepared cells were incubated with 3 μM fura-2/AM at 37° C. for 50 min in a fresh serum-free RPMI 1640 medium under continuous stirring. 2×10^6 cells were aliquoted for each assay in Ca^2+-free Locke's solution (154 mM NaCl, 5.6 mM KCl, 1.2 mM MgCl2, 5 mM HEPES, pH 7.3, 10 mM glucose, and 0.2 mM EGTA). Fluorescence changes at the dual excitation wavelengths of 340 nm and 380 nm and the emission wavelength of 500 nm were measured, and the calibrated fluorescence ratio was translated into [Ca^2+]i. The peak level of the increased [Ca^2+]i was monitored.

FPRL1 = molecular target: T2, FPRL1 (Homo sapiens, UniProt P25090); test: Chemotaxis of FPRL1-expressing RBL-2H3 cells (modified Boyden chamber); conditions: FPRL1-expressing RBL-2H3 cells; various concentrations
T2 construct: expressed in transfected cells; host or cells: RBL-2H3 (rat basophilic leukemia) cells, G418-selected
T2 sequence (P25090 1-351): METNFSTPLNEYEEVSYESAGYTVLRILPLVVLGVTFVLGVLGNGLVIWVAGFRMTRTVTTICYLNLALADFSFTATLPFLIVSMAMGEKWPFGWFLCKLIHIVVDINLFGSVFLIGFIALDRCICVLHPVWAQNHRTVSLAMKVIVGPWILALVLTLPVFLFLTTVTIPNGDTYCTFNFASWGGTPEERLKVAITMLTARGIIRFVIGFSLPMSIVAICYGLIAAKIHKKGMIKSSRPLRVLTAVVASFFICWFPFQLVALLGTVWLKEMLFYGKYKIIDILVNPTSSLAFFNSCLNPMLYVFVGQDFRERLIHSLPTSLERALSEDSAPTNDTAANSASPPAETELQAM
Method: as §1

FPR [3] = molecular target: T1, FPR; test: Exocytosis: β-hexosaminidase secretion in FPR-expressing RBL-2H3 cells; conditions: for granule secretion / β-hexosaminidase release (words): FPR cells, 10 μM of each peptide (WKYMVm also various concentrations)
Method: Granule secretion is one of the most important function of mast cells (20). The effect of WKYMVm on granule secretion was checked by measuring β-hexosaminidase secretion as described above (18). Briefly, RBL-2H3 cells (2×10^5/well) expressing FPR or FPRL1 were cultured overnight in a 24-well tissue culture plate. The cells were washed twice with Tyrode's buffer (137 mM NaCl, 12 mM NaHCO3, 5.6 mM glucose, 2.7 mM KCl, 1 mM CaCl2, 0.5 mM MgCl2, 0.4 mM NaH2PO4, 0.1g/100 ml BSA, and 25 mM HEPES, pH 7.4) and stimulated with each peptide. Various concentrations of WKYMVm were treated in FPR- or FPRL1-expressing RBL-2H3 cells (FIG. 5A). 1 μM of WKYMVm was used to stimulate two cell lines in the absence or presence of 10 μM BAPTA/AM (FIG. 5B). The reaction was terminated 20 min after stimulation by placing the plate on ice. Secretion of β-hexosaminidase into the medium was determined by incubating 50 μl of supernatant or cell lysate with 25 μl of 5 mM p-nitrophenyl-N-acetyl-β-D-glucosamide in 0.1 M sodium citrate buffer (pH 3.8) at 37° C. for 2 hr. At the end of the incubation, 50 μl of 0.4 M Na2CO3 were added. Absorbance was monitored at 405 nm. Data are means ±S.E. of a single representative of three experiments performed in triplicate. Values (means ±S.E.) were expressed as a percent of total β-hexosaminidase present in the cells.
From the new finding that cytosolic calcium release was induced by WKYMVm and many of the substituted peptides of WKYMVm but not by some of them (WKGMVm (SEQ ID NO: 1), WKRMVm (SEQ ID NO: 11), D-Met^6 substituted peptides), the effect of the peptides on granule secretion in RBL cells was checked. 10 μM of each peptide was treated in FPR- (FIG. 6A) or FPRL1-expressing RBL-2H3 cells (FIG. 6B). The peptide-induced secretion of β-hexosaminidase was determined as above. Data are means ±S.E. of a single representative of three experiments performed in triplicate.

| Compound | cellular chemotaxis (FPR [1]) | EC50 (nM), intracellular calcium increase (FPR [2]) | cellular chemotaxis (FPRL1) | granule secretion / β-hexosaminidase release (words) (FPR [3]) | [Ca^2+]i increasing activity (FPR [2]) | concentration showing maximal β-hexosaminidase release (FPR [3]; FPR-expressing RBL-2H3 cells) [nM] | concentration showing maximal [Ca^2+]i increase activity (FPR [2]; data not shown) |
| --- | --- | --- | --- | --- | --- | --- | --- |
| WKYMVE-NH2 [WKYMVE-NH2, Trp-Lys-Tyr-Met-Val-Glu-NH2] | induced cellular chemotaxis | inactive | induced cellular chemotaxis showing concentration-dependency |  |  |  |  |
| CSCC[C@H](NC(=O)[C@H](CCCNC(=N)N)NC(=O)[C@H](CCCCN)NC(=O)[C@@H](N)Cc1c[nH]c2ccccc12)C(=O)N[C@H](C(=O)N[C@H](CCSC)C(N)=O)C(C)C [WKRMVm-NH2, Trp-Lys-Arg-Met-Val-D-Met-NH2] (H-WKRMV[dM]-NH2; N-terminus assumed) | induced cellular chemotaxis | inactive | induced cellular chemotaxis showing concentration-dependency | could not effect granule secretion |  |  |  |
| CSCC[C@H](NC(=O)[C@H](Cc1ccc(O)cc1)NC(=O)[C@H](CCCCN)NC(=O)[C@@H](N)Cc1c[nH]c2ccccc12)C(=O)N[C@H](C(=O)N[C@H](CCSC)C(N)=O)C(C)C [WKYMVm-NH2, Trp-Lys-Tyr-Met-Val-D-Met-NH2, reference compound] | induced cellular chemotaxis | inactive | induced cellular chemotaxis showing concentration-dependency | caused β-hexosaminidase release in a concentration-dependent manner |  | 100 | around 300 nM |

Further lines, with some results ahead:

| cellular chemotaxis (FPR [1]) | EC50 (nM), intracellular calcium increase (FPR [2]) | Compound | cellular chemotaxis (FPRL1) | granule secretion / β-hexosaminidase release (words) (FPR [3]) | [Ca^2+]i increasing activity (FPR [2]) | concentration showing maximal β-hexosaminidase release (FPR [3]; FPR-expressing RBL-2H3 cells) [nM] | concentration showing maximal [Ca^2+]i increase activity (FPR [2]; data not shown) |
| --- | --- | --- | --- | --- | --- | --- | --- |
| induced cellular chemotaxis | inactive | WKYMVR-NH2 [WKYMVR-NH2, Trp-Lys-Tyr-Met-Val-Arg-NH2] | induced cellular chemotaxis showing concentration-dependency |  |  |  |  |
| induced cellular chemotaxis | inactive | CSCC[C@H](NC(=O)CNC(=O)[C@H](CCCCN)NC(=O)[C@@H](N)Cc1c[nH]c2ccccc12)C(=O)N[C@H](C(=O)N[C@H](CCSC)C(N)=O)C(C)C [WKGMVm-NH2, Trp-Lys-Gly-Met-Val-D-Met-NH2] (H-WKGMV[dM]-NH2; N-terminus assumed) | induced cellular chemotaxis showing concentration-dependency | could not effect granule secretion | did not effect a [Ca^2+]i increase until 20 μM treatment |  |  |
